In ChEMBL document CHEMBL3638605, “N-hydroxy-benzamids for the treatment of cancer” (2014):

Target: T1, Histone deacetylase 8 (Homo sapiens, UniProt Q9BY41)
T1 sequence (Q9BY41 whole entry): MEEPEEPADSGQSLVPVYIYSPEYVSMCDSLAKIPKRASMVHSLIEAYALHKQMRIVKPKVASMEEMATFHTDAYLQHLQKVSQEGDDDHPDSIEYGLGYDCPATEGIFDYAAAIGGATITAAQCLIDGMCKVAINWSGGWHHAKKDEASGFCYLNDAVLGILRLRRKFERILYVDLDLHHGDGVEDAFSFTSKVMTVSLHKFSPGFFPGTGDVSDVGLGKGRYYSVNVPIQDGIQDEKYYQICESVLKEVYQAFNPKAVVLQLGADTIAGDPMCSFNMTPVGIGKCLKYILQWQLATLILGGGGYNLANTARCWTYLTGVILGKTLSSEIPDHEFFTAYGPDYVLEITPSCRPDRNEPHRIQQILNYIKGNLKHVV
Test: Fluorometric Assay: Compounds were tested for their ability to inhibit histone deacetylase 8 using an in vitro deacetylation assay. In a detailed procedure, 8 μl of HDAC8 enzyme solution (0.125 μg/μl) was transferred to assay plates (CORNING 3676). 1 μl of half-log diluted compounds were added into wells and incubated for 15 min at rt. After that, 8 μl of substrate solution was transferred to the wells and incubated for 30 min at rt. After deacetylation of the substrate by incubation with HDAC8 enzyme, subsequent exposure to a developing reagent produced a fluorophore that was directly proportional to the level of deacetylation. So 4 μl of developer regent (Cayman 10006394) was added into the wells in the assay plates and incubated for 15 min. The fluorescence signal was measured by a FlexStation3 plate reader (excitation wave length 340-360 nm; emission wave length 440-465 nm).

IC50: 470 nM
SMILES: O=C(NO)c1ccc2c(c1)CC(Nc1nccc(-c3cccnc3)n1)CN2 (stereo unspecified)
